# Results taken from patent US20210100777A1, “HEAT SHOCK PROTEIN (HSP) INHIBITION AND MONITORING EFFECTIVENESS THEREOF” (H. LEE MOFFITT CANCER CENTER AND RESEARCH INSTITUTE, INC., priority 2013, published 2021).
# What was measured:
# [1] = system: heat shock proteins (HSPs) in RPMI-8226 multiple myeloma cells; assay: LC-MRM quantification of HSP expression before and 24 hours after 17-DMAG (Example 1); type: cell-based, human; settings: 106 nM 17-DMAG
# Method: Monitoring HSPs in multiple myeloma cells. RPMI-8226 multiple myeloma cells were cultured in suspension as described above with the addition of 100 units/mL penicillin/streptomycin. Stock 17-dimethylaminoethylamino-17-demethoxy-geldanamycin (17-DMAG) was dissolved in DMSO at a concentration of 10 mM. Based on prior IC50 measurements, the RPMI-8226 cells were treated with 106 nM 17-DMAG for 24 hours.
# RPMI-8226 cells (n=10^6) were lysed using […] aqueous 8M urea with 100 mM ammonium bicarbonate. Protein concentration was measured by the Bradford assay and 0.38 μg of protein (equivalent to 3,750 cells) was injected for LC-MRM analysis of control and drug-treated samples. The proteins were reduced with 2 mM TCEP, alkylated with 20 mM IAA, and digested overnight in solution with trypsin at 37° C. Corresponding stable-isotope-labeled internal standard peptides were added to the samples after digestion. Then, peptides were extracted using pipette tips packed with C18 reversed-phase resin (Ziptip, Millipore; Billerica, Mass.) and concentrated to dryness by vacuum centrifugation (Speedvac, Thermo), and resuspended in aqueous 2% ACN with 0.1% formic acid prior to MS. LC-MRM was performed as described above. Quantification is achieved by using the sum of the peak areas for all detected transitions using QuanBrowser (Xcalibur, Thermo, San Jose, Calif.) or Skyline. The ratio of peak area of the endogenous peptide over corresponding internal standard was calculated for each peptide in the sample to enable absolute and relative quantification. Relative protein expression after treatment was normalized to the pretreatment control for each cell line and plotted to show the change in expression after drug treatment. Bubble plots were created using the SigmaPlot 10 (SPSS).
# [2] = system: vemurafenib resistant melanoma cell lines; assay: Apoptosis, Annexin-V staining and flow cytometry; type: cell-based; settings: 72 or 144 hours
# Method: Flow cytometry. […] In some studies, RPMI7951 cells were treated with 300 nM XL888 in the presence or absence of 3 μM vemurafenib and harvested after 24, 48 and 72 hours.
# HSP70 isoform 1 (HSP71) = assay: LC-MRM pharmacodynamic assay of HSP90 inhibition in melanoma cell lines; type: cell-based; settings: 300 nM, 0-48 hours; naïve, intrinsically resistant and acquired resistant cell lines
# Method: Proteomics Sample Preparation. Proteins were extracted as described for Western Blotting and processed as described in (Remily-Wood et al., Proteomics Clin. App. 5:383-96 (2011)).
# Liquid chromatography, multiple reaction monitoring mass (LC-MRM) spectrometry (LC MRM) analysis. LC-MRM was performed as described in (Remily-Wood et al., Proteomics Clin. App. 5:383-96 (2011)). Protein expression was determined using the ratio of peak area of the native peptide to corresponding internal standard; normalization of tissue results was performed using GAPDH to control for cellularity (Table 9). Data were then normalized to the pretreatment (cell lines) or vehicle controls (tissue) and plotted to show the changes in expression after drug treatment.
# [3] = system: HSP90 client and apoptosis proteins in vemurafenib-resistant melanoma cell lines; assay: Western blotting; type: cell-based
# Description: Western blotting. Proteins were extracted and blotted for as described previously (Smalley et al., Br. J. Cancer 96:445-9 (2007)). […] The antibodies to IGF1R, PDGFRβ, ARAF, CRAF, phospho-AKT Ser473, total AKT, phospho-ERK, total ERK, cyclin D1, phospho-S6, total S6, phospho-BIM (Ser69), total BIM, HSP70 and MCL-1 were from Cell Signaling Technology (Beverly, Mass.). Anti-26S was purchased from Abcam (Cambridge, Mass.), and the antibody against COT was from Santa Cruz Biotechnology (Santa Cruz, Calif.).
# [4] = system: FOXO3a in M229R and 1205LuR cells; assay: Immunofluorescent staining; type: cell-based; settings: 48 hours; XL888 300 nM, GDC-0941 3 μM
# Method: Immunofluorescent staining. M229R and 1205LuR cells were seeded at 50% confluency onto glass coverslips in a 12 well plate and allowed to adhere overnight. […] Fixed cells were separately stained by incubating overnight with rabbit anti-BIM or anti-FOXO3a antibodies followed by staining with secondary anti-rabbit AF488. Cells were then mounted onto slides with ProLong Gold Antifade containing DAPI (Invitrogen) and imaged with a Leica confocal microscope equipped with a 40x oil immersion lens.
# [5] = system: chymotrypsin like proteasome activity in M229R and 1205LuR cells; assay: Proteasome-Glo Chymotrypsin-Like Cell Based Assay; settings: 300 nM, 48 hours
# Method: Measurement of proteasome activity. M229R and 1205LuR cells were harvested and plated at 7,500 cells per well in a white-walled 96 well plate. […] Proteasome activity was assessed using the Proteasome-Glo Chymotrypsin-Like Cell Based Assay (Promega; Madison, Wis.) and was measured in relative luminescence units (RLU).
# [6] = system: vemurafenib sensitive and naïve cell lines; assay: Cell cycle analysis, propidium iodide flow cytometry; type: cell-based; settings: 300 nM, 24 hours
# Method: FIGS. 15A, 15B, 15C, 15D, 15E, 15F, and 15G show the HSP90 inhibitor XL888 blocks the growth and survival of melanoma cell lines with diverse mechanisms of vemurafenib resistance. FIGS. 15A and 15B are graphs showing growth (%) of matched pairs of vemurafenib naïve and resistant melanoma cell lines and melanoma cell lines with intrinsic resistance. In FIG. 15A, cells were treated with increasing concentrations of vemurafenib (1 nM-10 μM: 72 hrs) before being subject to the MTT assay. […] FIGS. 15C to 15E are bar graphs showing the cell cycle effects of XL888 (300 nM: 24 hours) upon vemurafenib sensitive and naïve cell lines. Cells were fixed, stained with propidium iodide and distributions analyzed by flow cytometry. FIG. 15F-G are bar graphs showing that XL888 induced apoptosis in every model of acquired vemurafenib resistance tested. Cells were treated for either 72 or 144 hours with XL888 (300 nM) followed by Annexin-V. Apoptosis was measured by flow cytometry.
structure (smiles),measurement,setting,value
"CO[C@H]1/C=C\C=C(/C)C(=O)NC2=CC(=O)C(NCCN(C)C)=C(C[C@@H](C)C[C@H](OC)[C@H](O)[C@@H](C)/C=C(\C)[C@@H]1OC(N)=O)C2=O [17-DMAG, 17-Dimethylaminoethylamino-17-demethoxygeldanamycin]",H90B2 Post-Treatment,[1],25.3 amol/cell
same,HSPB3 Post-Treatment,[1]; peptide ADLINNLR,0.14 amol/cell
same,HSP74 Post-Treatment,[1]; peptide AFSDPFVEAEK,0.89 amol/cell
same,HS90B Post-Treatment,[1]; peptide ALLFIPR,14.5 amol/cell
same,HS90A Post-Treatment,[1]; peptide ALLFVPR,20.9 amol/cell
same,HSP72 Post-Treatment,[1]; peptide EIAEAYLGGK,0.39 amol/cell
same,HSP7C Post-Treatment,[1]; peptide GTLDPVEK,14.9 amol/cell
same,CDC37 Post-Treatment,[1]; peptide LQAEAQQLR,0.91 amol/cell
same,HSP71 Post-Treatment,[1]; peptide NQVALNPQNTVFDAK,0.051 amol/cell
same,GRP78 Post-Treatment,[1]; peptide VEIIANDQGNR,110 amol/cell
same,CDC37 Ratio,[1]; post- vs pre-treatment,1.07
same,GRP78 Ratio,[1]; post- vs pre-treatment,2.25
same,H90B2 Ratio,[1]; post- vs pre-treatment,1.57
same,HS90A Ratio,[1]; post- vs pre-treatment,1.87
same,HS90B Ratio,[1]; post- vs pre-treatment,1.84
same,HSP7C Ratio,[1]; post- vs pre-treatment,1.93
same,HSP71 Ratio,[1]; post- vs pre-treatment,3.95
same,HSP72 Ratio,[1]; post- vs pre-treatment,1.21
same,HSP74 Ratio,[1]; post- vs pre-treatment,1.23
same,HSPB3 Ratio,[1]; post- vs pre-treatment,1.25
"CC[C@@H](C)Nc1cc(C(=O)N[C@@H]2C[C@H]3CC[C@@H](C2)N3c2ccc(C(=O)C3CC3)cn2)c(C)cc1C(N)=O [XL888, 5-((R)-sec-butylamino)-N1-((1R,3s,5S)-8-(5-(cyclopropanecarbonyl)pyridin-2-yl)-8-azabicyclo[3.2.1]octan-3-yl)-2-methylterephthalamide]",apoptosis,"[2]; 300 nM, every cell line tested",> 66%
same,"apoptosis versus MEK, PI3K and MEK+PI3K inhibitors","[2]; resistance through COT, PDGFRβ overexpression and two unknown mechanisms",significantly higher levels of apoptosis than each of the other drug combinations
same,expression of HSP70 isoform 1 (HSP71),HSP70 isoform 1 (HSP71),robust time-dependent increases
same,"26S proteasome, Western blot","[3]; 300 nM, 48 hours",partly degrade the 26S proteasome
same,BIM phosphorylation at Ser69,"[3]; 300 nM, 48 hours, all cell lines tested apart from M249R",decreased BIM phosphorylation at Ser69
same,client protein degradation and signaling,"[3]; 300 nM, 48 hours, all cell lines with acquired BRAF inhibitor resistance","degradation of IGF1R, PDGFRβ, ARAF, CRAF and cyclin D1 and the inhibition of AKT, ERK and S6 signaling"
same,BIM expression,"[3]; 300 nM, 48 hours, entire cell line panel",increased BIM expression across the entire cell line panel
same,"HSP70 expression, Western blot","[3]; 300 nM, 48 hours, every cell line evaluated",increases in HSP70 expression
same,"expression of Mcl-1, Western blot","[3]; 300 nM, 48 hours, resistance through PDGFRβ, COT overexpression and two unknown mechanisms",marked decrease in the expression of Mcl-1
same,COT and cyclin D1 expression,"[3]; intrinsically vemurafenib-resistant RPMI7951 and WM39, respectively",degrade both COT and cyclin D1
same,nuclear accumulation of FOXO3a,[4],highly efficient at increasing nuclear accumulation of FOXO3a
same,inhibiting chymotrypsin like proteasome activity,[5],less effective than the MEK+PI3K inhibitor combination
same,cell cycle effect,"[6]; WM164, M229, M229R, M249, M249R, 1205Lu, WM39",G1-phase cell cycle arrest
same,cell cycle effect,"[6]; WM164R, 1205LuR, RPMI 7951",G2/M phase cell cycle arrest
